The subject of series [1] is MDA-MB-435. The experiment in a line: Antiproliferative activity against human MDA-MB-435 cells measured after 3 days by CCK-8 method. Conditions: MDA-MB-435, 72 h.
Series [2] concerns MDA-MB-231. The series is described as follows: Antiproliferative activity against human MDA-MB-231 cells measured after 3 days by CCK-8 method. The following applies: MDA-MB-231, 72 h.
For series [3], the system named is MDA-MB-231. The series is described as follows: Induction of apoptosis in human MDA-MB-231 cells assessed as late apoptotic cells at 4 uM incubated for 24 hrs by Annexin V-FITC/PI staining based flow cytometry analysis (reference value: 0.46%). The format is functional.
In series [4] the test system is MDA-MB-231. The experiment in a line: Induction of cell cycle arrest in human MDA-MB-231 cells assessed as increase in accumulation of cells at G2/M phase at 4 uM measured after 24 hrs by PI staining based flow cytometry analysis (reference value: 26.38%). In kind it is functional.
Series [5] is described as follows: Toxicity in BALB/c nude mouse assessed as change in AST level in liver serum at 15 to 30 mg/kg, ip administered daily for 18 days. The format is organism-based. The following applies: in vivo, 432 h, dose 15-30 mg/kg, time 18 day.
Series [6] can be described thus: Antiproliferative activity against human MCF-10A cells assessed as inhibition of cell growth measured after 48 hrs by CCK-8 method. The format is toxicity, cell-based.
Series [7] concerns MDA-MB-231. The series is described as follows: Antitumor activity against human MDA-MB-231 cells xenografted in BALB/c nude mouse model assessed as reduction in tumor growth at 15 mg/kg, ip administered daily for 18 days by vernier caliper method relative to control. In kind it is functional. The arrangement: scale not given: the % may be the effect or the level left. The following applies: time 18 day.

Series [8] relates to MDA-MB-231. The series is described as follows: Induction of cell cycle arrest in human MDA-MB-231 cells assessed as increase in accumulation of cells at G2/M phase at 8 uM measured after 24 hrs by PI staining based flow cytometry analysis (reference value: 26.38%). The format is functional.
Series [9] relates to MDA-MB-231. The experiment in a line: Induction of apoptosis in human MDA-MB-231 cells assessed as early apoptotic cells at 8 uM incubated for 24 hrs by Annexin V-FITC/PI staining based flow cytometry analysis (reference value: 5.40%). The format is functional.
The subject of series [10] is MDA-MB-231. The experiment in a line: Induction of apoptosis in human MDA-MB-231 cells assessed as necrotic cells at 8 uM incubated for 24 hrs by Annexin V-FITC/PI staining based flow cytometry analysis (reference value: 0.033%). The format is functional.
Series [11] relates to MDA-MB-231. The series is described as follows: Induction of apoptosis in human MDA-MB-231 cells assessed as viable cells at 2 uM incubated for 24 hrs by Annexin V-FITC/PI staining based flow cytometry analysis (reference value: 94.1%). In kind it is functional. The following applies: read-out: Activity.
The nature of series [12]: Toxicity in BALB/c nude mouse assessed as change in BUN level in kidney serum at 15 to 30 mg/kg, ip administered daily for 18 days. In kind it is organism-based. The following applies: in vivo, 432 h, dose 15-30 mg/kg, time 18 day.
For series [13], the system named is MDA-MB-231. The series is described as follows: Induction of cell cycle arrest in human MDA-MB-231 cells assessed as increase in accumulation of cells at G2/M phase at 2 uM measured after 24 hrs by PI staining based flow cytometry analysis (reference value: 26.38%). The format is functional.
Series [14] relates to MDA-MB-231. The series is described as follows: Induction of apoptosis in human MDA-MB-231 cells assessed as viable cells at 4 uM incubated for 24 hrs by Annexin V-FITC/PI staining based flow cytometry analysis (reference value: 94.1%). In kind it is functional. Conditions: read-out: Activity.
Series [15] deals with MDA-MB-231. The series is described as follows: Antitumor activity against human MDA-MB-231 cells xenografted in BALB/c nude mouse model assessed as reduction in tumor weight at 15 to 30 mg/kg, ip administered daily for 18 days by vernier caliper method. The format is functional, organism-based. The following applies: dose 15-30 mg/kg, time 18.0 day.
The test system of series [16] is MDA-MB-231. The experiment in a line: Induction of apoptosis in human MDA-MB-231 cells assessed as late apoptotic cells at 8 uM incubated for 24 hrs by Annexin V-FITC/PI staining based flow cytometry analysis (reference value: 0.46%). The format is functional.
Series [17] can be described thus: Toxicity in BALB/c nude mouse assessed as change in CK level in heart serum at 15 to 30 mg/kg, ip administered daily for 18 days. The following applies: in vivo, 432 h, dose 15-30 mg/kg, time 18 day. The format is organism-based.
In series [18] the test system is MDA-MB-231. The series is described as follows: Induction of apoptosis in human MDA-MB-231 cells assessed as necrotic cells at 4 uM incubated for 24 hrs by Annexin V-FITC/PI staining based flow cytometry analysis (reference value: 0.033%). The format is functional.
Series [19] can be described thus: Toxicity in BALB/c nude mouse assessed as effect on kidney at 15 to 30 mg/kg, ip measured after 18 days. In kind it is organism-based. The following applies: in vivo, 432 h, dose 15-30 mg/kg, time 18 day.
Series [20] has as its system MDA-MB-231. The series is described as follows: Induction of apoptosis in human MDA-MB-231 cells assessed as increase in cleaved PARP expression at 2 to 4 uM measured after 12 hrs by Western blot analysis. In kind it is functional, cell-based. Conditions: dose 2-4 µM.
In series [21] the test system is MDA-MB-231. The series is described as follows: Induction of DNA damage in human MDA-MB-231 cells assessed as increase in gamma-H2AX expression at 1 to 4 uM incubated for 24 hrs by Western blot analysis. The format is functional, cell-based. The following applies: dose 1-4 µM.
Series [22] is described as follows: Toxicity in BALB/c nude mouse assessed as change in CREA level in kidney serum at 15 to 30 mg/kg, ip administered daily for 18 days. The following applies: in vivo, 432 h, dose 15-30 mg/kg, time 18 day. In kind it is organism-based.
Series [23] concerns MDA-MB-231. The series is described as follows: cells. The following applies: Homo sapiens, MDA-MB-231, 48 h.
Description: Antiproliferative activity against human MDA-MB-231 cells assessed as inhibition of cell growth measured after 48 hrs by CCK-8 method
Series [24] relates to MDA-MB-231. The series is described as follows: Induction of apoptosis in human MDA-MB-231 cells assessed as early apoptotic cells at 2 uM incubated for 24 hrs by Annexin V-FITC/PI staining based flow cytometry analysis (reference value: 5.40%). In kind it is functional.
In series [25] the test system is MDA-MB-436. The series is described as follows: cells. Conditions: Homo sapiens, MDA-MB-436, 48 h.
Description: Antiproliferative activity against human MDA-MB-436 cells assessed as inhibition of cell growth measured after 48 hrs by CCK-8 method
Series [26] concerns MCF7. The experiment in a line: cells. The following applies: Homo sapiens, MCF7, 48 h.
Description: Antiproliferative activity against human MCF7 cells assessed as inhibition of cell growth measured after 48 hrs by CCK-8 method
Series [27] can be described thus: Toxicity in BALB/c nude mouse assessed as effect on body weight at 15 to 30 mg/kg, ip administered daily for 18 days. The format is organism-based. Conditions: in vivo, 432 h, dose 15-30 mg/kg, time 18 day.
In series [28] the test system is MDA-MB-231. The series is described as follows: Induction of cell cycle arrest in human MDA-MB-231 cells assessed as upregulation of phosphorylated histone H3 level at 2 to 4 uM measured after 12 hrs by Western blot analysis. In kind it is functional, cell-based. Conditions: dose 2-4 µM.
A short description of series [29]: Antiproliferative activity against rat H9c2 cells assessed as inhibition of cell growth measured after 48 hrs by CCK-8 method. The format is toxicity, cell-based.
The subject of series [30] is MDA-MB-231. The experiment in a line: Induction of apoptosis in human MDA-MB-231 cells assessed as viable cells at 8 uM incubated for 24 hrs by Annexin V-FITC/PI staining based flow cytometry analysis (reference value: 94.1%). The format is functional. Conditions: read-out: Activity.
Series [31] has as its system MDA-MB-231. The series is described as follows: Antitumor activity against human MDA-MB-231 cells xenografted in BALB/c nude mouse model assessed as reduction in tumor growth at 30 mg/kg, ip administered daily for 18 days by vernier caliper method relative to control. The format is functional. On the set-up: scale not given: the % may be the effect or the level left. The following applies: time 18 day.

Series [32] is described as follows: Antiproliferative activity against human HK-2 cells assessed as inhibition of cell growth measured after 48 hrs by CCK-8 method. In kind it is toxicity, cell-based.
Series [33] relates to MDA-MB-231. The series is described as follows: Induction of apoptosis in human MDA-MB-231 cells assessed as early apoptotic cells at 4 uM incubated for 24 hrs by Annexin V-FITC/PI staining based flow cytometry analysis (reference value: 5.40%). The format is functional.
The test system of series [34] is MDA-MB-231. The series is described as follows: Antiproliferative activity against human MDA-MB-231 cells assessed as reduction in number of cells in S phase at 1 to 4 uM measured after 48 hrs by EdU incorporation assay. The following applies: dose 1-4 µM. The format is functional, cell-based.
Series [35] is described as follows: Toxicity in BALB/c nude mouse assessed as change in LDH level in heart serum at 15 to 30 mg/kg, ip administered daily for 18 days. Conditions: in vivo, 432 h, dose 15-30 mg/kg, time 18 day. The format is organism-based.
Series [36] is described as follows: Toxicity in BALB/c nude mouse assessed as effect on liver at 15 to 30 mg/kg, ip measured after 18 days. The format is organism-based. The following applies: in vivo, 432 h, dose 15-30 mg/kg, time 18 day.
The subject of series [37] is MDA-MB-231. The experiment in a line: Induction of DNA damage in human MDA-MB-231 cells assessed as increase in gamma-H2AX fluorescence intensity at 1 to 4 uM incubated for 48 hrs by immunofluorescence staining based analysis. In kind it is functional, cell-based. Conditions: dose 1-4 µM.
Series [38] concerns MDA-MB-231. The series is described as follows: Antitumor activity against human MDA-MB-231 cells xenografted in BALB/c nude mouse model assessed as reduction in tumor volume at 15 to 30 mg/kg, ip administered daily for 18 days by vernier caliper method. The format is functional, organism-based. Conditions: dose 15-30 mg/kg, time 18.0 day.
A short description of series [39]: Toxicity in BALB/c nude mouse assessed as change in ALT level in liver serum at 15 to 30 mg/kg, ip administered daily for 18 days. The format is organism-based. Conditions: in vivo, 432 h, dose 15-30 mg/kg, time 18 day.
The subject of series [40] is MDA-MB-231. The experiment in a line: Induction of apoptosis in human MDA-MB-231 cells assessed as late apoptotic cells at 2 uM incubated for 24 hrs by Annexin V-FITC/PI staining based flow cytometry analysis (reference value: 0.46%). The format is functional.
Series [41] in a line: Toxicity in BALB/c nude mouse assessed as effect on heart at 15 to 30 mg/kg, ip measured after 18 days. The format is organism-based. Conditions: in vivo, 432 h, dose 15-30 mg/kg, time 18 day.
The test system of series [42] is MDA-MB-231. The experiment in a line: Induction of apoptosis in human MDA-MB-231 cells assessed as necrotic cells at 2 uM incubated for 24 hrs by Annexin V-FITC/PI staining based flow cytometry analysis (reference value: 0.033%). In kind it is functional.

SMILES strings stand for the structures. The source made the active and inactive calls. The rule behind the calls is not given here.

With `Cc1ncsc1-c1ccc(CNC(=O)[C@@H]2C[C@@H](O)CN2C(=O)[C@@H](NC(=O)CCOCCOCCOCCOCCOCCC(=O)NCCCOC(=O)NC(Nc2ncccn2)C(Cl)(Cl)Cl)C(C)(C)C)cc1` (some centres not stated), the figures for the IC50 in series [1] and in series [2] were 2 µM and 2.6 µM, respectively.

On to `O=C(NC(Nc1nc(Cl)cc(Nc2ccc(C(F)(F)F)cc2)n1)C(Cl)(Cl)Cl)OCCNC(=O)c1cnc(C(F)(F)F)s1` (configuration not stated), for which the Activity in [3] is reported as 0.62%; in [4], 34.91%; in [5], “Non-toxic”; in [7], 86%; in series [8], 54.71%; in series [9], 38.8%. Also, the Activity was 1.1% in series [10]; “Non-toxic” in [12]; 26.89% in series [13]; 7.61% in [16]; “Non-toxic” in series [17]; 0.62% in series [18]. In addition, the Activity result in series [19] is on record as “Non-toxic”; in [22], “Non-toxic”; in [24], 7.46%; in series [27], “Non-toxic”; in [31], 90%; in series [33] it was 13.4%. In addition, the Activity entry in [35] is reported as “Non-toxic”; in [36], “Non-toxic”; in [39], “Non-toxic”; in [40] it was 0.26%; in series [41], “Non-toxic”; in series [42], 0.01%. The 50% inhibitory concentration (IC50) at 48 h stood at 23.9 µM in series [6], 19.4 µM in series [29] and 23.4 µM in series [32]. Also, the viability at 2 µM in series [11] stood at 91.7%. The viability at 4 µM in series [14] worked out at 85.4%. The result in [15], in series [20], in series [21], in series [28], in series [34] and in series [37] was Active. Moreover, in [38], the outcome was Active. For the same compound, the IC50 in [23] is 3.28 µM; in series [25], 3.86 µM; in [26], 13.8 µM. In addition, the viability at 8 µM in [30] was found to be 52.4%.

The values are drawn from ChEMBL document CHEMBL6109089, “Design, synthesis and optimization of Apcin analogues as Cdc20 inhibitors for triple-negative breast cancer therapy” (Eur J Med Chem, 2025).
